In patent US11419921B2, “Methods of treating neurological disorders” (EnClear Therapies, Inc., priority 2018, dated 2022):

Legend:
(GR)10 [1] = test: Cleavage of (GR)10 by enzymes in solution (PBS with CaCl2 and MgCl2), LC/MS of GR repeats; format: biochemical; settings: for (GR)1 concentration / (GR)2 concentration / (GR)4 concentration / (GR)6 concentration / (GR)8 concentration / (GR)10 concentration: (GR)10 50 μM; for (GR)1 / (GR)2 / (GR)3 / (GR)4 / (GR)5 / (GR)6 / (GR)8 / (GR)10: PBS, normalized
Protocol: • (GR)10 dipeptide (also (GR)8, (GR)6, (GR)4, (GR)2) were synthetized by solid-phase synthesis by CanPeptide; All peptides are uncapped and supplied lyophilized with TFA as counter ions. Purity was always above 95%. • Buffer: PBS buffer containing CaCl2 and MgCl2. • Stock solution of enzyme (e.g., 10 mg/mL) (prepared per manufacturer instructions) in PBS. Activators added as necessary. • Working solution of protein of the desired concentration (e.g., 100 μg/mL) prepared immediately before use by diluting the stock solution (e.g., 5 μL of 10 mg/mL stock solution) in PBS buffer (e.g., in 495 μL of PBS). Exemplary Procedure Using 50 μM Concentrations of (GR)10
25 μL of a 100 μM solution of (GR)10 was added to each well of a 96-well plate. 25 μL of a solution of enzyme (two times the desired final enzyme concentration) was added, and the plates were incubated at room temperature. At the specified time points (5 minutes, 10 minutes, 30 minutes, 60 minutes, and 180 minutes) 2.5 μL of a 10% TFA solution were added to stop the reaction. For the time 0 min well, the TFA was added to the well before addition of the enzyme. After last time point, all samples were further diluted with 150 μL of dilution solution. The quenched reaction mixtures were analyzed by LC/MS to determine the concentration of GR repeats of different lengths.
The chromatography and mass spectrometry conditions utilized are shown in Table 2 and Table 3, respectively.

(GR)10 [2] = test: (GR)10 digestion with immobilized proteases in human cerebrospinal fluid (CSF); format: biochemical; settings: immobilized enzyme
Protocol: Protease solutions were prepared at 2 mg/mL in sterile PBS with calcium, magnesium and 200 μL ([…]) were applied to 100 μL of pre-washed NHS-activated agarose resin in 0.8 mL centrifuge columns. Reactions were left 1.5 hour at room temperature with end-to-end mixing, after which resins were washed with 12 resin volumes of PBS. Unreacted sites were blocked with 500 μL of 1M ethanolamine for 15 minutes at room temperature and resins were further washed with 24 resin volumes. Resins were stored at 4 degrees in 500 μL of PBS containing 0.05% sodium azide as preservative.
200 μM of (GR)10 were diluted in human cerebrospinal fluid (CSF) and 400 μL were applied to each immobilized proteases. The reaction was incubated 5 minutes at room temperature with end-to-end mixing. Columns were spun down 1 minute at 1,000 Xg to recover digested GR dipeptides. Columns were washed with 12 resin volumes of PBS. The procedure was repeated with 60 minutes digestion time. 100 μL of each samples were transferred to a clean tube, flash-frozen and subsequently used for LC/MS quantification of GR repeats of different lengths. The remaining 300 μL of each samples were flash-frozen and used to assess neuron toxicity.
(GR)10 was digested with exemplary immobilized enzymes as described above in the subsection titled “(GR)10 digestion with immobilized proteases in CSF” of Example 3. Clostripain experiments were conducted with and without DTT activation (no DTT during digestion). The results obtained after 5 and 60 minutes of reaction time are presented in Table 25 and shown in FIG. 5 (commercial and in-house immobilized trypsin), FIG. 6 (immobilized elastase, FIG. 7A (immobilized clostripain without DTT) and FIG. 7 (immobilized clostripain with 2.5 mM DTT).

## Elastase: protease that cleaves at the carboxyl side of small hydrophobic amino acids; in Table 22 also immobilized on agarose resin
(GR)10 [1]; enzyme 2.5 μg/mL, 0 min
  (GR)1 concentration: BLQ
  (GR)2 concentration: BLQ
  (GR)4 concentration: BLQ
  (GR)6 concentration: BLQ
  (GR)8 concentration: BLQ
  (GR)10 concentration: 53.8 µM
(GR)10 [1]; enzyme 2.5 μg/mL, 5 min
  (GR)1 concentration: 0.2 µM
  (GR)2 concentration: 0.2 µM
  (GR)4 concentration: BLQ
  (GR)6 concentration: BLQ
  (GR)8 concentration: 0.3 µM
  (GR)10 concentration: 52.6 µM
(GR)10 [1]; enzyme 2.5 μg/mL, 10 min
  (GR)1 concentration: 0.3 µM
  (GR)2 concentration: 0.2 µM
  (GR)4 concentration: 0.2 µM
  (GR)6 concentration: BLQ
  (GR)8 concentration: 0.6 µM
  (GR)10 concentration: 52.5 µM
(GR)10 [1]; enzyme 2.5 μg/mL, 30 min
  (GR)1 concentration: 1.3 µM
  (GR)2 concentration: 0.8 µM
  (GR)4 concentration: 0.7 µM
  (GR)6 concentration: 0.7 µM
  (GR)8 concentration: 0.6 µM
  (GR)10 concentration: 43.6 µM
(GR)10 [1]; enzyme 2.5 μg/mL, 60 min
  (GR)1 concentration: 2.3 µM
  (GR)2 concentration: 1.4 µM
  (GR)4 concentration: 1.4 µM
  (GR)6 concentration: 1.0 µM
  (GR)8 concentration: 1.6 µM
  (GR)10 concentration: 35.3 µM
(GR)10 [1]; enzyme 2.5 μg/mL, 120 min
  (GR)1 concentration: 4.3 µM
  (GR)2 concentration: 2.1 µM
  (GR)4 concentration: 2.3 µM
  (GR)6 concentration: 1.5 µM
  (GR)8 concentration: 2.5 µM
  (GR)10 concentration: 24.9 µM
(GR)10 [1]; enzyme 10 μg/mL, 0 min
  (GR)1 concentration: BLQ
  (GR)2 concentration: BLQ
  (GR)4 concentration: BLQ
  (GR)6 concentration: BLQ
  (GR)8 concentration: BLQ
  (GR)10 concentration: 41.6 µM
(GR)10 [1]; enzyme 10 μg/mL, 5 min
  (GR)1 concentration: 0.8 µM
  (GR)2 concentration: 0.5 µM
  (GR)4 concentration: 0.5 µM
  (GR)6 concentration: 0.4 µM
  (GR)8 concentration: 0.9 µM
  (GR)10 concentration: 50.5 µM
(GR)10 [1]; enzyme 10 μg/mL, 10 min
  (GR)1 concentration: 1.4 µM
  (GR)2 concentration: 0.8 µM
  (GR)4 concentration: 0.7 µM
  (GR)6 concentration: 0.8 µM
  (GR)8 concentration: 0.9 µM
  (GR)10 concentration: 37.8 µM
(GR)10 [1]; enzyme 10 μg/mL, 30 min
  (GR)1 concentration: 5.1 µM
  (GR)2 concentration: 2.5 µM
  (GR)4 concentration: 2.2 µM
  (GR)6 concentration: 1.6 µM
  (GR)8 concentration: 2.8 µM
  (GR)10 concentration: 21.1 µM
(GR)10 [1]; enzyme 10 μg/mL, 60 min
  (GR)1 concentration: 8.3 µM
  (GR)2 concentration: 3.7 µM
  (GR)4 concentration: 2.8 µM
  (GR)6 concentration: 2.2 µM
  (GR)8 concentration: 3.3 µM
  (GR)10 concentration: 12.2 µM
(GR)10 [1]; enzyme 10 μg/mL, 120 min
  (GR)1 concentration: 15.1 µM
  (GR)2 concentration: 6.3 µM
  (GR)4 concentration: 3.2 µM
  (GR)6 concentration: 2.0 µM
  (GR)8 concentration: 1.3 µM
  (GR)10 concentration: 2.4 µM
(GR)10 [1]; in solution - 5 min reaction
  (GR)1: 1.4 µM
  (GR)2: 2.9 µM
  (GR)3: 2.1 µM
  (GR)4: 3.1 µM
  (GR)5: 2.3 µM
  (GR)6: 4.4 µM
  (GR)8: 6.8 µM
  (GR)10: 213.3 µM
(GR)10 [1]; in solution - 60 min reaction
  (GR)1: 5.4 µM
  (GR)2: 12.8 µM
  (GR)3: 8.5 µM
  (GR)4: 8.8 µM
  (GR)5: 6.0 µM
  (GR)6: 9 µM
  (GR)8: 12.8 µM
  (GR)10: 21.6 µM
(GR)10 [2]; 5 min reaction
  (GR)1 (normalized uM): 57.4 µM
  (GR)2 (normalized uM): 29.4 µM
  (GR)3 (normalized uM): 20.7 µM
  (GR)4 (normalized uM): 22 µM
  (GR)5 (normalized uM): 10.5 µM
  (GR)6 (normalized uM): 0.0 µM
  (GR)8 (normalized uM): 0.0 µM
  (GR)10 (normalized uM): 0.0 µM
(GR)10 [2]; 60 min reaction
  (GR)1 (normalized uM): 200.3 µM
  (GR)2 (normalized uM): 6 µM
  (GR)3 (normalized uM): 0.0 µM
  (GR)4 (normalized uM): 0.0 µM
  (GR)5 (normalized uM): 0.0 µM
  (GR)6 (normalized uM): 0.0 µM
  (GR)8 (normalized uM): 0.0 µM
  (GR)10 (normalized uM): 0.0 µM
